Active and inactive are the calls of the source. No rule for the calls is given here.
Assays:
hERG (Kv11.1, KCNH2) [1] = target: T1, hERG (Kv11.1, KCNH2) (Homo sapiens, UniProt Q12809); assay: in vitro
Description: MMV: Malaria Box compounds were tested for inhibition of the human ether a go-go related gene (hERG), Kv11.1 channel, using IonWorks 384-well patch clamp electrophysiology at 11.1uM (3 independent assay plates up to 12 cells per concentration).

hERG (Kv11.1, KCNH2) [2] = target: T1, hERG (Kv11.1, KCNH2); assay: in vitro; remark: listed apart in the source
Description: MMV: Malaria Box compounds were tested for inhibition of the human ether a go-go related gene (hERG), Kv11.1 channel, using IonWorks 384-well patch clamp electrophysiology at 1.1uM (3 independent assay plates up to 12 cells per concentration).

T1 sequence (Q12809 whole entry): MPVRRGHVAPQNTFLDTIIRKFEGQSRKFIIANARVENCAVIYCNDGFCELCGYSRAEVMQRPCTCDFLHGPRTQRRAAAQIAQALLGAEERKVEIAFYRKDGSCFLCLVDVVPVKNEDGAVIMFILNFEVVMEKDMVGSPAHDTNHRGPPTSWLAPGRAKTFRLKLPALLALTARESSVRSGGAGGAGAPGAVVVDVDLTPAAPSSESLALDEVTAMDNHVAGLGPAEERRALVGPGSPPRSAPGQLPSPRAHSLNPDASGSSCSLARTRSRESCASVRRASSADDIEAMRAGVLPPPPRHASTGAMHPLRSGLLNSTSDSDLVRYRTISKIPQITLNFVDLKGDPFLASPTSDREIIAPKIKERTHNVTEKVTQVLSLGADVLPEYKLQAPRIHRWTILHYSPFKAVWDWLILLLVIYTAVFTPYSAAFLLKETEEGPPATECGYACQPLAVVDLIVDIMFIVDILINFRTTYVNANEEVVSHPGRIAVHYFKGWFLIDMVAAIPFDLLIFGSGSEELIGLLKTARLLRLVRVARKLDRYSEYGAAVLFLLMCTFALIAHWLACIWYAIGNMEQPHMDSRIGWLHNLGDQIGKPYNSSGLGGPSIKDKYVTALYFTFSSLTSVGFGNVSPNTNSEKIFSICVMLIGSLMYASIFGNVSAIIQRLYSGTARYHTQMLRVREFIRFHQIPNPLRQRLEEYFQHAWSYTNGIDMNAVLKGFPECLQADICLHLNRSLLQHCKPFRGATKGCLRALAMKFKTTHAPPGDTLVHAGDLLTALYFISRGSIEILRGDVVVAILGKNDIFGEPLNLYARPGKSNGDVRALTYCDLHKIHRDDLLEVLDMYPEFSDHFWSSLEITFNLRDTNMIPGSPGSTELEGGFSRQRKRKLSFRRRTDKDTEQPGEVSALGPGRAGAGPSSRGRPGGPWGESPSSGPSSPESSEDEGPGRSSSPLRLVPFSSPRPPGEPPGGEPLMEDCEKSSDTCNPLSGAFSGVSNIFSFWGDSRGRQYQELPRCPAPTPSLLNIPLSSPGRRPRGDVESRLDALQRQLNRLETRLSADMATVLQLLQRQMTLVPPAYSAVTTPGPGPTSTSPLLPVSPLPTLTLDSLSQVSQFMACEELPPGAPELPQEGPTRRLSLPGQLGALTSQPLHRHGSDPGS

Row | Compound | inhibition at 11.1 µM (hERG (Kv11.1, KCNH2) [1]) | inhibition at 1.1 µM (hERG (Kv11.1, KCNH2) [2]) [%]
1 | CCN1CCCC1CNc1[nH]cnc2c3cc(Cl)ccc3nc1-2 (stereo not drawn) | 29% | 6
2 | COc1ccc(-c2c(C)nn3c(N)c(C#N)cnc23)cc1OC | 11% (inactive) | 11
3 | COc1ccc2c(c1)C1(Nc3ccccc3-c3nc4ccccc4n31)C(=O)N2 (stereo not drawn) | 20% (inactive) | 4
4 | COc1cccc(Cn2c(Oc3ccccc3)nc3c2c(=O)n(C)c(=O)n3C)c1 | 26% | -4
5 | N=c1n(CCN2CCCCC2)c2ccccc2n1CC(=O)c1ccc(Cl)c(Cl)c1 | -1% (inactive) | -13
6 | CCOc1cc(CNC(C)C(O)c2ccccc2)cc(Cl)c1OCC (stereo not drawn) | 48% | 2
7 | C[n+]1c2ccccc2nc2ccc(NCCO)cc21 | 11% (inactive) | 8
8 | Nc1nc(Nc2cccc(F)c2)nc2ccccc12 | 59% (active) | 11
9 | CCOc1c(Cl)cc(CNCC(O)c2ccccc2)cc1OC (stereo not drawn) | 66% (active) | 16
10 | OC(CNCC1CCCO1)Cn1c2ccc(Cl)cc2c2cc(Cl)ccc21 (stereo not drawn) | 16% (inactive) | 12
11 | COc1ccc2nc(C)cc(Nc3ccccc3O)c2c1 | 57% (active) | 18
12 | COc1ccc(-c2nc(N3CCN(C(=O)C4CCCCC4)CC3)c3c4c(sc3n2)CCCC4)cc1 | 17% (inactive) | 7
13 | CCn1nc(-c2ccc(C(=O)OC)cc2)nc2c(=O)n(C)c(=O)nc1-2 | 9% (inactive) | -2
14 | CCOc1ccccc1CN1CCc2nc3cc(C(C)(C)C)nn3c(O)c2C1 | 58% (active) | -1
15 | O=C(NC1CCN(Cc2ccccc2)CC1)c1cc2nc(-c3ccc(Cl)s3)cc(C(F)(F)F)n2n1 | 60% (active) | 21
16 | Cc1sc(NC(=O)c2ccccc2)c(C(c2cccs2)N2CCN(c3ccccc3)CC2)c1C (stereo not drawn) | 9% (inactive) | 9
17 | Cc1sc(NC(=O)c2ccco2)c(C(c2cccnc2)N2CCC(Cc3ccccc3)CC2)c1C (stereo not drawn) | 9% (inactive) | -12
18 | CCOC(=O)c1c(C)n(-c2ccccc2)c2ccc(OC(=O)c3cc(OC)c(OC)c(OC)c3)cc12 | 11% (inactive) | -6
19 | COc1cc(C(=O)Nc2nc3c(cc4c5c(cccc53)CC4)s2)cc(OC)c1OC | 23% (inactive) | 10
20 | Cc1cc(N2CCCC2)nc(Nc2ccc(NC(=O)CCc3ccccc3)cc2)n1 | 116% (active) | 9
21 | O=C(NCC(c1ccsc1)N1CCCCCC1)c1ccc(C(F)(F)F)cc1 (stereo not drawn) | 94% | 50
22 | COc1ccc(-c2cc3c(SCC(=O)Nc4cc(C(F)(F)F)ccc4Cl)nccn3n2)cc1 | 17% (inactive) | 6
23 | Cc1ccc(-c2cc3c(SCC(=O)Nc4cc(C(F)(F)F)ccc4Cl)nccn3n2)cc1 | 29% | 2
24 | Cc1cc(NC(=O)c2cccc(C(F)(F)F)c2)n(-c2nc(-c3ccc4c(c3)OCO4)cs2)n1 | 6% (inactive) | 12
25 | CCN(CC)CCNc1ncnc2c1[nH]c1ccc(Cl)cc12 | 97% | 99
26 | CN1CCN(c2ncnc3c2[nH]c2ccc(Cl)cc23)CC1 | 92% (active) | 15
27 | CC1(c2ccccc2)Nc2ccccc2-c2nc3ccccc3n21 (stereo not drawn) | 29% | -10

Row | Compound | inhibition at 11.1 µM (hERG (Kv11.1, KCNH2) [1]) | inhibition at 1.1 µM (hERG (Kv11.1, KCNH2) [2]) [%]
28 | COc1ccc(CCN2C(=O)c3[nH]nc(-c4cc(Cl)c(C)cc4O)c3C2c2ccccc2F)cc1 (stereo not drawn) | 5% | 51
29 | COc1cccc(C2(C)Nc3ccccc3-c3nc4ccccc4n32)c1 (stereo not drawn) | 18% (inactive) | 10
30 | N#Cc1nc(Cc2cccc3ccccc23)oc1N1CCN(C(c2ccccc2)c2ccccc2)CC1 | 13% (inactive) | 15
31 | CC(C)CNC(=O)c1c(N)n(CCc2ccccc2F)c2nc3ccccc3nc12 | -11% (inactive) | 17
32 | O=C(NNc1cc(N2CCCC2)nc(N2CCCC2)n1)c1ccccc1 | 35% | 4
33 | CC(C)(C)CC(C)(C)NCC(O)COc1ccc(Cl)cc1Cl (stereo not drawn) | 81% (active) | 8
34 | Cc1cccc(-n2ncc3c(O)nc(-n4nc(C)cc4NC(=O)c4cc5ccccc5o4)nc32)c1 | -8% (inactive) | -3
35 | CCCCCC(=O)N1c2ccccc2N=C2CC(c3ccc(OC)c(OC)c3)CC(O)=C2C1c1ccc(C(F)(F)F)cc1 (stereo not drawn) | 23% (inactive) | 9
36 | OC1=C2C(=Nc3ccccc3SC2c2ccccc2)c2ccccc21 (stereo not drawn) | 16% (inactive) | 15
37 | FC(F)(F)c1cccc(Nc2nc3ccccc3nc2Nc2cccc(C(F)(F)F)c2)c1 | 8% (inactive) | -4
38 | Cc1ccc(C(=O)c2oc3ccc4c(C)cc(=O)oc4c3c2C)cc1 | 7% (inactive) | -3
39 | CC(C)(C)c1ccc(O)c(CNC2CCCCC2)c1 | 35% | 10
40 | CCC(=O)Nc1nnc(Cc2ccc(OC)c(OC)c2)s1 | -7% (inactive) | -1
41 | CC(NCc1ccccc1)c1cc(Cl)ccc1O (stereo not drawn) | 35% | -4
42 | CCOc1ccc(C2N(C)c3ccccc3N2C)cc1 | 7% (inactive) | 2
43 | O=c1cc(NC2CCN(CCCc3ccccc3)CC2)c2cc(Cl)ccc2o1 | 101% | 89
44 | COc1ccc(C=C2SC(Nc3ccc(F)cc3)=NC2=O)c(OC)c1 | 96% (active) | 44
45 | CCN(CC)CCNc1ncnc2c1[nH]c1ccc(Br)cc12 | 102% | 91
46 | CCOc1ccc(-n2cc(-c3ccccc3)c3c(SCc4cc(C)ccc4C)ncnc32)cc1 | -16% (inactive) | -10
47 | CCN(CC)CCCNc1ccnc2cc3ccccc3cc12 | 23% (inactive) | -2
48 | COc1ccccc1NC1=C(N2CCCCC2)C(=O)c2ccccc2C1=O | 16% (inactive) | 4
49 | COc1cc(SC)ccc1C(=O)N1CCCC(C)C1 (stereo not drawn) | 8% (inactive) | 16
50 | CC(C)(C)c1ccc(C(=O)Nc2nc3ccccc3s2)cc1 | 7% (inactive) | -3
51 | COc1cc(CNCCc2ccc(Cl)cc2)cc(OC)c1O | 59% (active) | 16
52 | COc1cc2c(cc1OC)C1=NNC(=O)C1=NC(C)(C)C2 | 11% (inactive) | 9
53 | CN(C)c1ccc(N=Cc2ccc(N3CCOCC3)cc2)cc1 | -3% (inactive) | -6
54 | CCOC(=O)c1c[nH]c2c(CC)cccc2c1=O | 5% (inactive) | 10

From ChEMBL document CHEMBL3301458, “MMV Malaria Box hERG screening”
